Data on 25 compounds can be found in the supplement of paper PMC10290057.

In assay [1] the test system is HCT116. Kind of assay: AC50 cell viability (CellTiter-Glo); higher = less potent. As to conditions: 48 h.
The subject of assay [2] is HCT116. Kind of assay: efficacy (fitted maximal change in viability relative to DMSO control); higher = less cytotoxic (negative = loss of viability). Conditions: 48 h.
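Throughout, for AC50 cell viability (CellTiter-Glo): HCT116 colorectal carcinoma cells screened at five concentrations per compound, luminescent viability scaled between DMSO wells and empty wells on each plate, curves fitted per compound.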
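Throughout, for efficacy (fitted maximal change in viability relative to DMSO control): Luminescence-based viability readout, five doses per compound, normalized against on-plate DMSO and empty-well controls, followed by dose-response curve fitting for every drug.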

For `CNC(=O)c1cccc2cc(Oc3ccnc4cc(OCC5(N)CC5)c(OC)cc34)ccc12` [Lucitanib], the AC50 cell viability in assay [1] worked out at 14.8 µM. Moreover, the efficacy in assay [2] was -96.6%.

On to `COc1ccc2[nH]c3c(c2c1)CCN[C@]31CS[C@@H]2c3c(OC(C)=O)c(C)c4c(c3[C@H](COC1=O)N1[C@@H]2[C@H]2c3c(cc(C)c(OC)c3O)C[C@@H]([C@@H]1O)N2C)OCO4` [Lurbinectedin], for which the AC50 cell viability in assay [1] stood at 0.00539 µM. Further, the efficacy in assay [2] is -72.4%.

As for `NC(=O)c1cccc2c(NC(CN3CCC3)c3ccc(Cl)c(C(F)(F)F)c3)ncnc12` (stereo not given) [M2698], the AC50 cell viability in assay [1] was determined as 10.5 µM. Also, the efficacy in assay [2] was -116%.

Regarding `CCCCOC(=O)N[S+](=O)([O-])c1sc(CC(C)C)cc1-c1ccc(Cn2ccnc2)cc1` [M-024], in assay [1], the AC50 cell viability turned out to be 18.6 µM. Also, the efficacy in assay [2] is -84.4%.

On to `CN(C)c1ccc(C(=O)NCCCCCCC(=O)NO)cc1` [M-344], for which the AC50 cell viability in assay [1] stood at 0.742 µM. Also, in assay [2], the efficacy is -84.5%.

For the compound `Cn1cc(/C=C/C(=O)c2cccc(F)c2)cc1/C=C/C(=O)NO` [MC-1568], the AC50 cell viability in assay [1] was determined as 14.8 µM. In assay [2], the efficacy is -49.8%.

`CC1(N2CCC(n3c([C@@H]4CCCNC4)nc4ccccc43)CC2)CCCCCCC1` [MCOPPB]: in assay [1], the AC50 cell viability was 9.34 µM. In addition, the efficacy in assay [2] is -82.3%.

Compound `OC(c1cc(C(F)(F)F)nc2c(C(F)(F)F)cccc12)C1CCCCN1` (stereo not given) [MEFLOQUINE] came in with an AC50 cell viability in assay [1] of 20.9 µM. Besides, the efficacy in assay [2] is -109%.

As to `CCC[C@@H](C=O)NC(=O)[C@H](CC(C)C)NC(=O)[C@H](CC(C)C)NC(=O)OCc1ccccc1` [MG-115], the AC50 cell viability in assay [1] was found to be 0.661 µM. In assay [2], the efficacy is -93.3%.

Take `CC(C)C[C@@H](C=O)NC(=O)[C@H](CC(C)C)NC(=O)[C@H](CC(C)C)NC(=O)OCc1ccccc1` [MG-132]: in assay [1], the AC50 cell viability was 0.468 µM. Also, the efficacy in assay [2] is -89.4%.

Compound `CCCCCCCc1ccc(CCc2cccc(O)c2C(=O)O)cc1` [MG-149] registered an AC50 cell viability in assay [1] of 18.6 µM. Further, the efficacy in assay [2] was -42.3%.

For `Cn1cnc(-c2cc3nccc(Oc4ccc(NC(=S)NC(=O)Cc5ccccc5)cc4F)c3s2)c1` [MGCD-265], in assay [1], the AC50 cell viability came to 16.6 µM. In assay [2], the efficacy is -59.3%.

For the compound `COCCOc1nc(-c2ccc(Cl)c(Cl)c2)n(-c2ccc(NC(=O)CCl)cc2)n1` [MI-2], the AC50 cell viability in assay [1] came out at 18.6 µM. Also, in assay [2], the efficacy was -63.7%.

Compound `Cc1c(CN2CCC(Nc3ncnc4sc(CC(F)(F)F)cc34)CC2)ccc2c1cc(C#N)n2Cc1cn[nH]c1` [MI-503] yielded an AC50 cell viability in assay [1] of 3.72 µM. In addition, the efficacy in assay [2] was -76%.

On to `N#Cc1cc2cc(CN3CCC(Nc4ncnc5sc(CC(F)(F)F)cc45)CC3)c(O)cc2n1Cc1cn[nH]c1` [MI-538], for which, in assay [1], the AC50 cell viability was found to be 13.2 µM. Besides, the efficacy in assay [2] is -111%.

`CN1CCN(c2ccc3nc(-c4cc(C(C)(C)C)c(OCCCC(=O)NCCCN=[N+]=[N-])c(C(C)(C)C)c4)[nH]c3c2)CC1` [MIR96-IN-1] came in with an AC50 cell viability in assay [1] of 8.33 µM. In addition, the efficacy in assay [2] is -98.9%.

In assay [1], `CC(C)(C)Sc1c(CC(C)(C)C(=O)O)n(Cc2ccc(Cl)cc2)c2ccc(OCc3ccc4ccccc4n3)cc12` [MK591] registered an AC50 cell viability of 20.9 µM. Further, the efficacy in assay [2] was -88.4%.

For `CC(C)c1ccc2c(c1)c(SC(C)(C)C)c(CC(C)(C)C(=O)[O-])n2Cc1ccc(Cl)cc1` [MK-886], in assay [1], the AC50 cell viability is 20.9 µM. In addition, the efficacy in assay [2] is -83.3%.

As for `C=CCn1c(=O)c2cnc(Nc3ccc(N4CCN(C)CC4)cc3)nc2n1-c1cccc(C(C)(C)O)n1` [MK-1775], the AC50 cell viability in assay [1] was determined as 0.742 µM. Also, in assay [2], the efficacy was -73.8%.

Regarding `NC1(CCC1)C2=CC=C(C=C2)C3=C(C=C/4C(=N3)\C=C/N5C(=O)N\N=C45)C6=CC=CC=C6` [MK-2206], the AC50 cell viability in assay [1] stood at 16.6 µM. For the same compound, the efficacy in assay [2] is -122%.

Take `CN(C[C@@H]1COCCO1)[S+]([O-])(=O)NC2=CC3=C(C=C2)\C=C/C4=C(C=C(C=N4)C5=C[N](C)N=C5)C3=O` [MK-2461]: the AC50 cell viability in assay [1] was determined as 18.6 µM. The efficacy in assay [2] is -103%.

`O=C(O)C1(Cc2cccc(Nc3nccs3)n2)CCC(Oc2cccc(Cl)c2F)CC1` (stereo not given) [MK-5108] had an AC50 cell viability in assay [1] of 0.833 µM. The efficacy in assay [2] was -34.3%.

The compound `C[N]1C=C(C=N1)C2=CN=C3\C=C/C4=CC=C(C[S+]([O-])(=O)NCC5=NC=CC=C5)C=C4C(=O)C3=C2` [MK-8033] yielded an AC50 cell viability in assay [1] of 16.6 µM. Also, in assay [2], the efficacy was -65.9%.

In turn, `Cn1cc(-c2cnn3c(N)c(Br)c(C4CCCNC4)nc23)cn1` (stereo not given) [MK-8776] had an AC50 cell viability in assay [1] of 10.5 µM. Besides, the efficacy in assay [2] is -113%.

Compound `C[N]1C=C(C2=CC=CC=C12)/C3=C(/C(=O)NC3=O)C4=C[N](C)C5=CC(=CC=C45)[N+]([O-])=O` [MKC-1] registered an AC50 cell viability in assay [1] of 1.86 µM. For the same compound, in assay [2], the efficacy was -87.5%.
